The values that follow come from patent US7067500B2, “Betaines as adjuvants to susceptibility testing and antimicrobial therapy” (priority 1997, dated 2006).

The test relates to M. tuberculosis isolates (Table 8). Put plainly: MTB isolates vs. antibiotic screen in the presence and absence of CB-18. Particulars: CB-18 17 μg/ml.

“Also recorded” adds a separate entry of the source. Where a name gives a salt, the structure may show the parent alone.

Take `CCCCCCCCCCCCCCCCCC[N+](C)(C)CCCC(=O)[O-]` [CB-18, N-(3-carboxypropyl)-N,N-dimethyl-1-octadecanaminium, inner salt]: the “CB-18 induced sensitivity to antibiotics tested” value is on record as “exacerbated in the presence of CB-18; also recorded: Minor, if any, CB-18 induced sensitivity to” (061-TBR (INH resistant)) and “Minimal, if any, CB-18 induced sensitivity to” (896-BAL (multi drug resistant: INH, RIF & PZA)).
